The source of these data is US8206722B2, “Somatostatin receptor antagonists and glucose control or hypoglycemia” (The Governing Council of the University of Toronto, priority 2007, dated 2012).

In one data set the target is SSTR-2 (Homo sapiens, UniProt P30874). Particulars: antagonist at SSTR-2, cited from earlier work.
A further data set concerns non-diabetic rats. To be noted: cited from earlier work.
In data set [1] the test system is non-diabetic and STZ-diabetic rats. The data set is described as follows: Insulin-induced hypoglycemic glucose clamp with SSTR antagonist infusion in non-diabetic and STZ-diabetic rats. The class given is in vivo, rat. Here is the method: FIG. 1 indicates levels of plasma glucose levels in four groups of rats during the 1-h SSTR antagonist/saline pretreatment and 3-h hypoglycemic clamp experiment. […] A similar glycemic profile is observed in FIG. 1B when another dose of insulin and SSTR antagonist (DC-41-33) were tested (5 U/kg and 3000 nmol/kg/h, respectively).
Non-diabetic and STZ-diabetic rats were injected with insulin (10 U/kg and 5 U/kg). These doses yielded reproducible responses of plasma glucose (FIG. 1). In diabetic rats, plasma glucose is elevated approximately 3- to 4-fold before hypoglycemia is induced. A subcutaneous injection of insulin was given immediately after the sample was taken at time 0 in all groups of rats to induce hypoglycemia. Plasma glucose levels dropped to the same target hypoglycemia (2.75±0.25 mM) in both non-diabetic and diabetic rats. […] This technique of glucose clamping is a well-established method in diabetes research which allows precise comparison between different groups at a specific glycemic level.
This technique is referred to as the “glucose clamp” and is achieved by intravenously infusing glucose whenever necessary.

The subject of a further data set is isolated islets. To be noted: isolated islets and perifused isolated islets; reversed dose-dependently by added somatostatin; cited from earlier work.
Data set [2] relates to isolated, perfused pancreas. Particulars: perfused pancreas of non-diabetic rats; cited from earlier work.

SSTR-2, sequence (P30874 whole entry, species assumed): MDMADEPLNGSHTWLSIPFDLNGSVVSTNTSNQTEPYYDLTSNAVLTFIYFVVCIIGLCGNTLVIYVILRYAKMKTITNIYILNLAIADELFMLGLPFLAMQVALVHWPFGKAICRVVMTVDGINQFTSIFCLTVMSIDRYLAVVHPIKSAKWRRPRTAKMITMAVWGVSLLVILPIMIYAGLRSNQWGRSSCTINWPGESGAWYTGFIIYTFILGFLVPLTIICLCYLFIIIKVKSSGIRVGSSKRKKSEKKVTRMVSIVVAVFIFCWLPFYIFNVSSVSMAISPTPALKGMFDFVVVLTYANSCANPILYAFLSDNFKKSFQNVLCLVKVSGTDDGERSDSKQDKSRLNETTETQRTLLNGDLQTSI

Take “H-Cpa-cyclo[Cys-Pal-DTrp-Lys-Ile-Cys]-Nal-NH2 [PRL-2915]”: the “Affinity (nM), Units pKi” value on SSTR-2 is recorded as 7.9 pKi.
With “H-Cpa-cyclo[DCys-Tyr-DTrp-Lys-Thr-Cys]-Nal-NH2 (XCYWKTCX; Cpa, Nal, D-residues, cyclic disulfide, C-terminal amide; Synthetic - PRL-2970)”, the “Affinity (nM), Units pKi” value in the data set with SSTR-2 is reported as 7.6 pKi.
On to “H-Fpa-cyclo[DCys-Pal-DTrp-Lys-Tle-Cys]-Nal-NH2 [DC-41-33]”, for which the “reversal of inhibition by GIP, GIP-(1-30)NH2 and GLP-1(7-36)NH2 of pentagastrin-stimulated gastric acid secretion” value in the data set on non-diabetic rats was “able to reverse the inhibitory effect”. Further, the “plasma epinephrine levels during basal infusion of antagonist” value in data set [1] (basal infusion before insulin, antagonist 1500 nmol/kg/h, FIG. 7) is on record as “did not affect plasma epinephrine levels”. In addition, the “growth hormone (GH) levels” value in data set [1] (diabetic rats, regardless of hypoglycemia, insulin 5 U/kg, antagonist 3000 nmol/kg/h, FIG. 9) is “did not affect GH levels”. Moreover, the “peak glucagon response to hypoglycemia, increase” value in data set [1] (diabetic rats, insulin 5 U/kg, antagonist 3000 nmol/kg/h, FIG. 3) is on record as about 7 fold. In addition, the “corticosterone response to hypoglycemia” value in data set [1] (diabetic rats, insulin 5 U/kg, antagonist 3000 nmol/kg/h, FIG. 5) is on record as “fully normalized”; in data set [1] (non-diabetic and diabetic rats, insulin 10 U/kg, antagonist 1500 nmol/kg/h, FIG. 4), “augmented to the same extent”; in data set [1] (non-diabetic and diabetic rats, insulin 10 U/kg, antagonist 1500 nmol/kg/h, FIG. 4, listed as SSTR2 antagonist), “increases in the corticosterone response”. The “plasma glucagon before insulin and throughout hypoglycemia” value in data set [1] (diabetic rats, insulin 10 U/kg, antagonist 1500 nmol/kg/h, FIG. 2) is “glucagon was increased”. Also, the “increase in plasma epinephrine levels (AUC) in response to hypoglycemia” value in data set [1] (diabetic rats, insulin 10 U/kg, antagonist 1500 nmol/kg/h, FIG. 7) came to 4 fold. In addition, the “plasma norepinephrine during basal infusion and insulin-induced hypoglycemia” value in data set [1] (insulin 10 U/kg, antagonist 1500 nmol/kg/h, FIG. 8) is given as “no effect”. Also, the “glucose infusion requirement during 3 h hypoglycemic clamp” value in data set [1] (non-diabetic and diabetic rats versus untreated controls, insulin 5 U/kg, antagonist 3000 nmol/kg/h, FIG. 6) is on record as “less glucose infusion was necessary”. Besides, the “increase in plasma glucagon induced by insulin, with versus without antagonist” value in data set [1] (non-diabetic rats, insulin 10 U/kg, antagonist 1500 nmol/kg/h, FIG. 2) was 3 fold. Also, the “glucagon secretion to an arginine stimulus” value in the data set on isolated islets was “dose-dependently increases glucagon secretion”. The glucagon secretion result in data set [2] is recorded as “enhances glucagon secretion”. For the same substance, in data set [2], the insulin secretion result is on record as “without affecting insulin secretion”. Moreover, the IC50 on SSTR-2 (Units column prints pIC50, read-out: Affinity (nM), Units pIC50 (converted)) is 27.4 nM.
Turning to “HFIRWF [AC-178,335, Ac-His-Phe-Ile-Arg-Trp-Phe-NH2]”, on SSTR-2, the “Affinity (nM), Units pKi” value was 6.8 pKi.
